Assay results as given in patent US11213536B2, “Acylated compounds for the treatment of ocular pathologies” (CONSEJO SUPERIOR DE INVESTIGACIONES CIENTÍFICAS, priority 2016, dated 2022).
Marks after values point to notes of the source that are not given here.

Columns and labels:
Prpf31^A216P/+ (KI) mice = test: Prpf31 A216P/+ mice RPE degeneration model, eye drops and light damage; format: in vivo, mouse; conditions: for Fundus Abnormal (%) / Fundus Normal (%) / Fundus Abnormal (number) / Fundus Normal (number): 2 mM eye drops daily for two and a half months, 5,000 lux 3 h; for Fundus Abnormal (number) / Fundus Normal (number): n=10; for number of positive responses in optomotor test (visual acuity): 6 spatial frequencies 0.031-0.272 cycles/degree, vs control KI; for thickness of the retina (OCT): vs control KI group; for statistical association with normal fundi vs control KI group: chi-square / Fisher's exact test
Excerpt: Prpf31^A216P/+ mice are a useful model for assessing the degeneration of the RPE. This model is characterized by an increase in the thickness of the Bruch membrane and accumulation of esterified cholesterol between said membrane and the RPE produced by a defect in the splicing of the mRNA of relevant genes of the visual cycle, such as RPE65 and RDH12. The accumulation of toxic products derived from retinol leads to an increase in ROS, infiltration of macrophages, and primary degeneration of the RPE. The degeneration of the RPE occurs late, at approximately 8 months of age. The phenotypic characteristics of this model can be exacerbated by exposure to intense light and are characterized primarily by accumulation of pseudo-drusenoid lesions and regions of atrophy observed in the fundus, with a loss of visual acuity and perception of contrast being observed, as well as a decrease in the amplitude of the c-wave of the ERG and a decrease in the thickness of the retina.
To evaluate the protective effect of the administration of our compounds in eye drops, we used heterozygous 6 month-old Prpf31^A216P/+ (KI) mice that were treated topically with 20 μl of the studied compounds applied directly on the corneal surface daily (L-V) for two and a half months. The compounds used were RES and compound 2, which were diluted in a solution of 13% hydroxypropyl-beta-cyclodextrin (CYCLO) in order to obtain a final concentration of 2 mM of each compound. After two and a half months of application of the eye drops with CICLO, RES, or compound 2, the mutant KI mice were exposed to a light source of 5,000 lux for 3 hours. Normal (WT) and KI mice were also exposed to intense light as test control without receiving any treatment. Subsequently, the fundus of the animals was evaluated, in addition to the visual acuity by means of the optomotor test, the thickness of the retina by means of optical coherence tomography (OCT), and the amplitude of the c-wave by ERG.
Two categories were used to quantify the macroscopic characteristics of the fundus: abnormal and normal fundus. The fundi categorized as abnormal were those in which the presence of autofluorescent pseudo-drusenoid lesions was observed (FIG. 11; arrows) or with regions of focal atrophy (FIG. 11; arrowheads). The percentage of abnormal fundi in the WT mice exposed to light (WT control) was 20%, and in the untreated KI (KI control) it was 90%. Meanwhile, this percentage was reduced to 30% in mice treated with compound 2 (KI 2) and only to 60% in both mice treated with CYCLE (KI CYCLE) and RES (KI RES) (table 1). […] These values were similar to those observed when comparing WT control and KI control (chi-square=7.35, P<0.01, Fisher's exact test P<0.05) and with a probability of obtaining a normal fundus in the WT control group of eight times greater than in the control KI (normal RR=8; IC95%=1.184-54.043).
To evaluate the thickness of the retina in vivo, a Stratus OCT (Zeiss) was used with a scanner adjusted to 6 lines of 3.45 mm each arranged radially. Six measurements were performed in each eye, upon which the retinal map was prepared (FIG. 12) with the thickness of the retina quantified from the ganglion cell layer to the RPE.
To evaluate the functional integrity of the RPE, the amplitude of the c-wave in the ERG was measured. The c-wave is defined as a positive slow wave that appears after the b-wave and is used to measure the functional integrity of the RPE. Since the amplitude of this wave can be affected by the integrity of the photoreceptors, it is best to normalize the results with the amplitude of the b-wave, for which reason a quantification was performed of the proportion of the amplitude of the c-wave between the amplitude of the b-wave (c-/b-wave ratio) (FIG. 13). […]

[1] = Zebrafish embryo toxicity assay; conditions: in vivo, other: incubation of embryos with the compound, 0 to 96 hpf
Protocol: Twenty zebrafish embryos were incubated for each concentration of compound to be tested (1 to 4). The concentrations used of each compound are 0.1 μM, 1 μM, 10 μM, 100 μM and 1 mM. The incubation period goes from 0 to 96 hours post fertilization (hpf). A negative control of 1% DMSO and a positive control of N, N-diethylaminobenzaldehyde (DEAB) are included. After the incubation period, the LC50 (lethal dose for 50% of the animals) is calculated.

RAW 264.7 macrophages = test: Inflammation parameters (TNF-α, NO, IL-6) in supernatant of LPS-stimulated RAW 264.7 macrophages; format: cell-based; conditions: 10 μM, LPS 1 μg/ml, 24 h
Protocol: To determine the production of cytokines, 5×10^5 RAW 264.7 macrophages were seeded in 24-well plates (0.5 ml per well). The compounds to be tested were then added (10 μM), and the macrophages were either stimulated or not through the addition of LPS (1 μg/ml) to the culture medium. After 24 hours, the levels of IL-6 and TNF-α were measured in the supernatants by ELISA using the capture and biotinylated antibodies from BD PharMingen and PrepoTech (Gonzalez-Rey et al., Gut. 2009; 58:929-939; Sánchez et al., Stem Cells. 2011; 29:251-262). The levels of NO in the supernatants at 24 hours were measured indirectly by determining the nitrite concentration in the medium using the Griess reagent (Anderson et al., Gut. 2013; 62:1131-1141). A minimum of two independent experiments and three replicates per experiment were performed for each measured value. The values are expressed as the mean±standard deviation.
In the previous assay, the levels of various inflammation parameters were measured (TNF-α, NO, and IL-6) by ELISA after treatment with RES or with compound 2 (FIGS. 3, 4, and 5).

[2] = KI mice, 2 mM eye drops, light damage

Row | SMILES | Fundus Abnormal (%) (Prpf31^A216P/+ (KI) mice; KI mice) | Fundus Normal (%) (Prpf31^A216P/+ (KI) mice; KI mice) | Fundus Abnormal (%) (Prpf31^A216P/+ (KI) mice; KI mice, listed as compound 2) | Fundus Abnormal (number) (Prpf31^A216P/+ (KI) mice; KI mice) | Fundus Normal (number) (Prpf31^A216P/+ (KI) mice; KI mice) | autofluorescent pseudo-drusenoid lesions and regions of focal atrophy in the fundus (Prpf31^A216P/+ (KI) mice; [2]) | c-/b-wave ratio (ERG) (Prpf31^A216P/+ (KI) mice; [2]) | number of positive responses in optomotor test (visual acuity) (Prpf31^A216P/+ (KI) mice; [2]) | autofluorescent pseudo-drusenoid lesions and regions of focal atrophy in the fundus (Prpf31^A216P/+ (KI) mice; KI mice, 2 mM eye drops, light damage, listed as compound 2) | thickness of the retina (OCT) (Prpf31^A216P/+ (KI) mice; [2]) | statistical association with normal fundi vs control KI group (Prpf31^A216P/+ (KI) mice) | RR normal (probability of normal fundus vs. KI control) (Prpf31^A216P/+ (KI) mice; vs KI control, IC95% = 1.044-46.949) | LC50 [1] [µM] | IL-6 in culture medium (RAW 264.7 macrophages; ELISA) | TNF-α in culture medium (RAW 264.7 macrophages; ELISA) | NO in culture medium (RAW 264.7 macrophages; Griess reagent)
1 | CCCCCCCC(=O)OCC1OC(Oc2cc(O)cc(/C=C/c3ccc(O)cc3)c2)C(O)C(O)C1O [Compound 2, trans-resveratrol-3-O-(6′-O-octanoyl)-β-D-glucopyranoside] | (30) % | (70)* % | 30 | 3 | 7 | this type of lesion was not observed | significantly higher | significantly higher | prevented the formation | significantly greater | statistically significant relationship | 7 | < 140 | similarly | – | –
2 | Oc1ccc(C=Cc2cc(O)cc(O)c2)cc1 [RES, resveratrol, reference compound] | – | (40) % | – | 6 | 4 | areas with autofluorescent punctiform yellow-white lesions (arrows) were observed | – | only significant at 0.194 cycles/degree | – | significantly greater | no statistically significant association | – | < 1000 | significantly decreases | significantly decreases | significantly decreases
